The target in this experiment is T1, ligand binding domain of human RORγ (A262-S507) (Homo sapiens, UniProt P51449).
T1 construct: made in house; host or cells: E. coli
T1 sequence (P51449 262-507): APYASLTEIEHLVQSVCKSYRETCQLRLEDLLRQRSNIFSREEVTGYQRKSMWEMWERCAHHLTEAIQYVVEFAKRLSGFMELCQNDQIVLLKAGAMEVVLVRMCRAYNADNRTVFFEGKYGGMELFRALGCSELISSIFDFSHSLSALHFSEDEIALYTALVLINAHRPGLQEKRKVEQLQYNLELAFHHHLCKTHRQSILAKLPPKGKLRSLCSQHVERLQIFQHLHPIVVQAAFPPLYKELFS
Put plainly: General RORγ SPA binding assay (competition with [3H]25-hydroxycholesterol). The note with it: RORγ SPA binding assay, inhibition of [3H]25-hydroxycholesterol binding; read-out: IC50. The protocol:
Example 2 General RORγ SPA Binding Assay
The binding of potential ligands to RORγ is measured by competition with [^3H]25-hydroxycholesterol using a scintillation proximity assay (SPA) binding assay. The ligand binding domain of human RORγ (A262-S507) with an N-terminal His tag is expressed in E. coli and purified using nickel affinity chromotography. 50 nM RORγ (A262-S507) is incubated with test compound at varying concentrations for 15 min at room temperature in PBS buffer containing 0.5% fatty acid free BSA. […] of [^3H]25-hydroxycholesterol is then added, and the reaction is incubated for 15 min. 4 mg/mL of Ysi Copper HIS-TAG SPA Beads (Perkin Elmer) are added, and the mixture is incubated for 30 min. The reaction is read on a MicroBeta Trilux scintillation plate reader (Perkin Elmer). IC50 values are determined from the percentage inhibition of [^3H]25-hydroxycholesterol binding.
For the compound `Cc1nc(C)c(-c2nnc(-c3ccnc(C(F)(F)F)n3)o2)c(C2CCN(C(=O)Nc3ccccc3C(F)(F)F)CC2)n1` [Compound C30, 4-(2,6-dimethyl-5-{5-[2-(trifluoromethyl)pyrimidin-4-yl]-1,3,4-oxadiazol-2-yl}pyrimidin-4-yl)-N-[2-(trifluoromethyl)phenyl]piperidine-1-carboxamide], the IC50 (in general, the concentration needed to halve the response being measured) worked out at 49.7 nM.

As for `CC(=O)Nc1ncc(C(C)(O)COc2ccnc(C(F)(F)F)n2)c(C2CCN(C(=O)Nc3c(F)cccc3F)CC2)n1` (centres unmarked) [Compound D31, 4-[2-(Acetylamino)-5-(1-hydroxy-1-methyl-2-{[2-(trifluoromethyl)pyrimidin-4-yl]oxy}ethyl)pyrimidin-4-yl]-N-(2,6-difluorophenyl)piperidine-1-carboxamide], the IC50 turned out to be 119 nM.

For `Cc1cc(C)cc(CNC(=O)c2cnc(C)nc2C2CCN(C(=O)Cc3ccccc3OC(F)(F)F)CC2)c1` [Compound A9, N-(3,5-dimethylbenzyl)-2-methyl-4-(1-(2-(2-(trifluoromethoxy)phenyl)acetyl)piperidin-4-yl)pyrimidine-5-carboxamide], the IC50 amounted to 31.6 nM.

Consider `Cc1nc(C)c(-c2nnc(-c3ccnc(C(F)(F)F)n3)o2)c(C2CCN(C(=O)[C@H](C)c3c(F)cccc3F)CC2)n1` [Compound C35, (R)-2-(2,6-Difluorophenyl)-1-(4-(2,6-dimethyl-5-(5-(2-(trifluoromethyl)pyrimidin-4-yl)-1,3,4-oxadiazol-2-yl)pyrimidin-4-yl)piperidin-1-yl)propan-1-one], for which the half-maximal inhibitory concentration (IC50) was determined as 608 nM.

With `Cc1cc(C)cc(CNC(=O)c2cnc(C)nc2C2CCN(C(=O)Nc3ccccc3F)CC2)c1` [Compound A106, N-(3,5-Dimethylbenzyl)-4-(1-((2-fluorophenyl)carbamoyl)piperidin-4-yl)-2-methylpyrimidine-5-carboxamide], the IC50 came out at 270 nM.

As to `Cc1ncc(C(O)COc2cccc(C(F)(F)F)n2)c(C2CCN(C(=O)Nc3c(F)cccc3F)CC2)n1` (centres unmarked) [Compound N1, N-(2,6-Difluorophenyl)-4-[5-(1-hydroxy-2-{[6-(trifluoromethyl)pyridin-2-yl]oxy}ethyl)-2-methylpyrimidin-4-yl]piperidine-1-carboxamide], the half-inhibitory concentration (IC50) turned out to be 6.6 nM.

Regarding `Cc1nc(C)c(-c2nnc(-c3cccc(C(F)(F)F)n3)o2)c(C2CCN(C(=O)Cc3c(F)cccc3F)CC2)n1` [Compound C6, 2-(2,6-difluorophenyl)-1-(4-(2,6-dimethyl-5-(5-(6-(trifluoromethyl)pyridin-2-yl)-1,3,4-oxadiazol-2-yl)pyrimidin-4-yl)piperidin-1-yl)ethanone], the concentration for half-maximal inhibition (IC50) worked out at 5.2 nM.

On to `Cc1cc(C)cc(ONC(=O)c2cnc(C)nc2C2CCN(C(=O)Cc3c(F)cccc3F)CC2)c1` [Compound H2, 4-(1-(2-(2,6-difluorophenyl)acetyl)piperidin-4-yl)-N-(3,5-dimethylphenoxy)-2-methylpyrimidine-5-carboxamide], for which the concentration for half-maximal inhibition (IC50) was found to be 49 nM.

As for `Cc1nc(C)c(-c2nc(-c3cccc(C(F)(F)F)c3)no2)c(C2CCN(C(=O)Nc3c(F)cccc3F)CC2)n1` [Compound C63, N-(2,6-difluorophenyl)-4-(2,6-dimethyl-5-{3-[3-(trifluoromethyl)phenyl]-1,2,4-oxadiazol-5-yl}pyrimidin-4-yl)piperidine-1-carboxamide], the 50% inhibitory concentration (IC50) was 281 nM.

Regarding `Cc1ncc(C(F)(F)COc2cccc(C(F)(F)F)n2)c(C2CCN(C(=O)Nc3c(F)cccc3C(F)(F)F)CC2)n1` [Compound N15, 4-[5-(1,1-Difluoro-2-{[6-(trifluoromethyl)pyridin-2-yl]oxy}ethyl)-2-methylpyrimidin-4-yl]-N-[2-fluoro-6-(trifluoromethyl)phenyl]piperidine-1-carboxamide], the 50% inhibitory concentration (IC50) is 10.9 nM.

For `CC(=O)N1CCN(CC(O)(COc2cccc(C(F)(F)F)n2)c2cnc(C)nc2C2CCN(C(=O)Nc3c(F)cccc3F)CC2)CC1` (centres unmarked) [Compound N39, 4-{5-[2-(4-Acetylpiperazin-1-yl)-1-hydroxy-1-({[6-(trifluoromethyl)pyridin-2-yl]oxy}methyl)ethyl]-2-methylpyrimidin-4-yl}-N-(2,6-difluorophenyl)piperidine-1-carboxamide], the IC50 came to 84.1 nM.

In the case of `Cc1cc(C)cc(CNC(=O)c2cnc(C)nc2C2CCN(C(=O)Cc3ccccc3C)CC2)c1` [Compound A11, N-(3,5-dimethylbenzyl)-2-methyl-4-(1-(2-(o-tolyl)acetyl)piperidin-4-yl)pyrimidine-5-carboxamide], the IC50 was found to be 49 nM.

Turning to `CCn1c(C)nc(C2CCN(C(=O)Cc3c(F)cccc3F)CC2)c(C(=O)NCc2cccc(C(F)(F)F)n2)c1=O` [Compound I8, 4-(1-(2-(2,6-Difluorophenyl)acetyl)piperidin-4-yl)-1-ethyl-2-methyl-6-oxo-N-((6-(trifluoromethyl)pyridin-2-yl)methyl)-1,6-dihydropyrimidine-5-carboxamide], the IC50 was 2290 nM.

On to `Cc1cc(C)cc(CNC(=O)c2cnc(C)nc2C2CCN(C(=O)c3ncccc3Cl)CC2)c1` [Compound A33, 4-(1-(3-chloropicolinoyl)piperidin-4-yl)-N-(3,5-dimethylbenzyl)-2-methylpyrimidine-5-carboxamide], for which the IC50 came to 1950 nM.

In the case of `Cc1nc(C)c(C(=O)NCc2ccnc(C(F)(F)F)n2)c(C2CCN(C(=O)Cc3c(F)cccc3F)CC2)n1` [Compound A121, 4-{1-[(2,6-Difluorophenyl)acetyl]piperidin-4-yl}-2,6-dimethyl-N-{[2-(trifluoromethyl)pyrimidin-4-yl]methyl}pyrimidine-5-carboxamide], the 50% inhibitory concentration (IC50) is 58.4 nM.

With `Cc1ncc(C(=O)NCc2cccc(Cl)c2)c(C2(C)CCN(C(=O)Cc3c(F)cccc3F)CC2)n1` [Compound A102, N-(3-Chlorobenzyl)-4-(1-(2-(2,6-difluorophenyl)acetyl)-4-methylpiperidin-4-yl)-2-methylpyrimidine-5-carb oxamide], the concentration for half-maximal inhibition (IC50) was found to be 1730 nM.

Take `Cc1ncc(C(C)(O)CN(C)c2ccnc(C(F)(F)F)n2)c(C2CCN(C(=O)Nc3c(F)cccc3F)CC2)n1` (centres unmarked) [Compound D19, N-(2,6-Difluorophenyl)-4-[5-(1-hydroxy-1-methyl-2-{methyl[2-(trifluoromethyl)pyrimidin-4-yl]amino}ethyl)-2-methylpyrimidin-4-yl]piperidine-1-carboxamide]: the concentration for half-maximal inhibition (IC50) was determined as 196 nM.

As to `Cc1ncc(/C(CO)=N/Oc2ccnc(C(F)(F)F)c2)c(C2CCN(C(=O)Cc3c(F)cccc3F)CC2)n1` [Compound B23, (1Z)-1-(4-{1-[(2,6-Difluorophenyl)acetyl]piperidin-4-yl}-2-methylpyrimidin-5-yl)-2-hydroxyethanone O-[2-(trifluoromethyl)pyridin-4-yl]oxime], the IC50 was 8.4 nM.

As to `Cc1nc(C)c(C(=O)NCc2ccnc(C(F)(F)F)n2)c(C2CCN(C(=O)Nc3c(F)cccc3F)CC2)n1` [Compound A122, 4-(1-{[(2,6-difluorophenyl)amino]carbonyl}piperidin-4-yl)-2,6-dimethyl-N-{[2-(trifluoromethyl)pyrimidin-4-yl]methyl}pyrimidine-5-carboxamide], the IC50 came out at 116 nM.

`Cc1ncc(C(C)(O)CNc2cccc(Cl)c2)c(C2CCN(C(=O)Cc3c(F)cccc3F)CC2)n1` (centres unmarked) [Compound D1, 1-(4-(5-(1-(3-Chlorophenylamino)-2-hydroxypropan-2-yl)-2-methylpyrimidin-4-yl)piperidin-1-yl)-2-(2,6-difluorophenyl)ethanone]: the IC50 is 2.6 nM.

The record behind these values is patent publication US10035790B2, “RORγ modulators” (BRISTOL-MYERS SQUIBB COMPANY, priority 2012, dated 2018).
